The subject of test [1] is mouse dextran sodium sulfate-induced chronic inflammatory bowel disease model. The conditions noted are these: once-daily doses of 3 and 10 mg/kg; efficacy similar to sulfasalazine; cited from earlier work.
A further test concerns the target T1, human GPR84 receptor (Homo sapiens, UniProt Q9NQS5).
T1 construct: host or cells: HEK293, transient transfection
Briefly: Gαi biosensor BRET assay in HEK293 cells (antagonism of ZQ-16). The class given is cell-based. The conditions noted are these: for inhibition at 2 µM: HEK293, single concentration 2 μM (designated A); for IC50: HEK293 cells, antagonism of 200 nmol/L ZQ-16; for inhibition at 10 µM: HEK293, single concentration 10 μM (designated F). A digest of the protocol:
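Antagonist mode: test compound 5 min at 37° C, followed by ZQ-16 agonist (200 nmol/L, 5 min, room temperature), in HEK293 cells transfected with GPR84 plus Rluc8-tagged Gαi2, GFP10-Gγ2 and Gβ1. Readout as GFP10/Rluc8 emission ratio after 5 μmol/L coelenterazine 400A, net of Rluc8-only and vehicle signal.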
A general note: In BRET a luciferase serves as donor, and the signal depends on an acceptor being close.

For another test, the system named is neutrophils. Kind of test: Neutrophil migration assay (embelin as chemotactic agent, ATPlite readout). The class given is cell-based. The conditions noted are these: for IC50: Neutrophil, human neutrophils, embelin as chemotactic agent, read-out: Human Neutrophil migration inhibition IC50; for Human Neutrophil migration inhibition - fold potency to Control Compound: normalized to GPR84 antagonist Control Compound (average IC50 131 nM). The essentials: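 Isolated neutrophils (8.9×10^6 cells/ml in DMEM + 10 mM HEPES) preincubated with compound 30 min at 37 °C, then allowed to migrate 60 min at 37 °C through 5 μm-pore transwells toward embelin. Migrated cells quantified by ATPlite luminescence; results normalized for donor variation.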
In general terms: In ATP-based viability assays light output follows the ATP content of the culture.

A value given as a limit tells only on which side of the number the result lay.

The term inhibition denotes the relative decrease from the control value, in per cent.

T1 sequence (Q9NQS5 whole entry): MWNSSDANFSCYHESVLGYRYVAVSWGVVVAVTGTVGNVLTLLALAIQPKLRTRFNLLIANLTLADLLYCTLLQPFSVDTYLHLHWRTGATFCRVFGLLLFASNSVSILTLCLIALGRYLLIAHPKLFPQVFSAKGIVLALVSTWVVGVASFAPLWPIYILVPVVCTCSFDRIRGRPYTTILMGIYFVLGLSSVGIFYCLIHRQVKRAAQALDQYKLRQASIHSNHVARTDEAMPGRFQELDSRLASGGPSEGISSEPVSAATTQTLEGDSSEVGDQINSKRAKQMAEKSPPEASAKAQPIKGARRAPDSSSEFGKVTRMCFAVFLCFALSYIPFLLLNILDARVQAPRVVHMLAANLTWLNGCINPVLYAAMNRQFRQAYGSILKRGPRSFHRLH

In the case of `O=c1nc(OC[C@@H]2COCCO2)cc2n1CCc1cc(C#CC3CC3)ccc1-2` [GLPG1205], in test [1], the “disease activity index score” value is reported as “reduced” and the neutrophil infiltration entry is on record as “reduced”.

With `CO[C@H](c1cn(C[C@H]2CCCCO2)nn1)c1cc(C#CC2CC2)ccc1C` [Compound I-511], at human GPR84 receptor, the inhibition at 2 µM is over 75% and the IC50 is at most 0.3 µM. In the test on neutrophils, the IC50 is at most 0.3 µM and the “Human Neutrophil migration inhibition - fold potency to Control Compound” value is “A (IC50 of >1.0-fold relative to Control Compound)”.

As for `CN(C)c1cc(C#CC2CC2)ccc1-c1cn(CC2CCCCO2)nn1` (centres unmarked) [Compound I-87], on human GPR84 receptor, the IC50 was in the range of 1 to 3 µM. In addition, in the test on neutrophils, the IC50 was in the range of 1 to 3 µM and the “Human Neutrophil migration inhibition - fold potency to Control Compound” value is reported as “C (IC50≤0.5-fold relative to Control Compound)”.

At human GPR84 receptor, `Cc1cc(N2CCN(Cc3ccccn3)CC2)ccc1-c1cn(C[C@@H]2CCC(F)(F)CO2)nn1` (stereo in doubt) [Compound I-636] came in with an inhibition at 10 µM of over 75% and an IC50 of at most 0.3 µM. Further, in the test with neutrophils, the IC50 is at most 0.3 µM and the “Human Neutrophil migration inhibition - fold potency to Control Compound” value was “A (IC50 of >1.0-fold relative to Control Compound)”.

Turning to `Cc1ccc(C#CC2CC2)cc1-n1nc(CC2CCCO2)oc1=O` (centres unmarked) [Compound I-17], on human GPR84 receptor, the inhibition at 10 µM was over 75% and the IC50 fell in the range of 0.3 to 1 µM. Also, in the test on neutrophils, the IC50 is at most 0.3 µM and the “Human Neutrophil migration inhibition - fold potency to Control Compound” value is reported as “B (IC50 of >0.5-≤1.0-fold relative to Control Compound)”.

Turning to `CN(C)c1cc(C#CCNCc2ccccc2)ccc1-c1cn(CC2CCCCO2)nn1` (centres unmarked) [Compound I-188], on human GPR84 receptor, the IC50 was over 3 µM. Besides, in the test with neutrophils, the IC50 is at most 0.3 µM and the “Human Neutrophil migration inhibition - fold potency to Control Compound” value is reported as “A (IC50 of >1.0-fold relative to Control Compound)”.

Consider `Cc1cc(N2CC(C)(C)C2)ccc1-c1cn(CC2CCCCO2)nn1` (centres unmarked) [Compound I-75], for which the inhibition at 25 µM at human GPR84 receptor (HEK293, single concentration 25 μM (designated I)) was over 75%. Further, the IC50 against human GPR84 receptor lay in the range of 0.3 to 1 µM. Further, in the test with neutrophils, the IC50 is at most 0.3 µM and the “Human Neutrophil migration inhibition - fold potency to Control Compound” value is recorded as “B (IC50 of >0.5-≤1.0-fold relative to Control Compound)”.

On human GPR84 receptor, `Cc1cc(N2CCN(Cc3ccccn3)CC2)ccc1-c1cn(CC2CC(C)(C)CO2)nn1` (centres unmarked) [Compound I-530] yielded an inhibition at 10 µM of over 75% and an IC50 of at most 0.3 µM. In the test on neutrophils, the IC50 was at most 0.3 µM and the “Human Neutrophil migration inhibition - fold potency to Control Compound” value is on record as “A (IC50 of >1.0-fold relative to Control Compound)”.

At human GPR84 receptor, `CC(C)Oc1cc(C#CC2CC2)cnc1-c1cn(CC2CCCCO2)nn1` (centres unmarked) [Compound I-478] returned an inhibition at 10 µM of over 75% and an IC50 of at most 0.3 µM. In addition, in the test on neutrophils, the IC50 was at most 0.3 µM and the “Human Neutrophil migration inhibition - fold potency to Control Compound” value is “B (IC50 of >0.5-≤1.0-fold relative to Control Compound)”.

On to `Cc1cc(N2CC(C)(N(C)Cc3ccccc3)C2)ccc1-c1cn(CC2CCCCO2)nn1` (centres unmarked) [Compound I-553], for which, at human GPR84 receptor, the inhibition at 10 µM lay in the range of 25 to 50% and the IC50 lay within 0.3 to 1 µM. In the test with neutrophils, the IC50 is at most 0.3 µM and the “Human Neutrophil migration inhibition - fold potency to Control Compound” value was “B (IC50 of >0.5-≤1.0-fold relative to Control Compound)”.

On human GPR84 receptor, `Cc1cc(N2CC(C)(OCc3ccccn3)C2)ccc1-c1cn(CC2CCCCO2)nn1` (centres unmarked) [Compound I-452] yielded an inhibition at 10 µM of over 75% and an IC50 of 0.3 to 1 µM. In the test with neutrophils, the IC50 is at most 0.3 µM and the “Human Neutrophil migration inhibition - fold potency to Control Compound” value was “A (IC50 of >1.0-fold relative to Control Compound)”.

`CCc1cc(C#CC2CC2)ccc1-c1cn(CC2CCCCO2)nn1` (centres unmarked) [Compound I-77]: the inhibition at 5 µM against human GPR84 receptor (HEK293, single concentration 5 μM (designated D)) was over 75%. The compound also had an IC50 on human GPR84 receptor of 0.3 to 1 µM. For the same compound, in the test with neutrophils, the IC50 was at most 0.3 µM and the “Human Neutrophil migration inhibition - fold potency to Control Compound” value is listed as “A (IC50 of >1.0-fold relative to Control Compound)”.

As for `Cc1cc(N2CC(C)(CNc3ccccc3)C2)ccc1-c1cn(CC2CCCCO2)nn1` (centres unmarked) [Compound I-411], on human GPR84 receptor, the inhibition at 10 µM was over 75% and the IC50 is at most 0.3 µM. Besides, in the test with neutrophils, the IC50 lay within 0.3 to 1 µM and the “Human Neutrophil migration inhibition - fold potency to Control Compound” value is “B (IC50 of >0.5-≤1.0-fold relative to Control Compound)”.

On human GPR84 receptor, `Cc1cc(N2CC(C)(NCc3ccccn3)C2)ccc1-c1cn(CC2CCCCO2)nn1` (centres unmarked) [Compound I-441] gave an inhibition at 10 µM of 50 to 75% and an IC50 of 1 to 3 µM. For the same compound, in the test with neutrophils, the IC50 was at most 0.3 µM and the “Human Neutrophil migration inhibition - fold potency to Control Compound” value is recorded as “A (IC50 of >1.0-fold relative to Control Compound)”.

As to `Cc1cc(N2CCN(Cc3ccccn3)CC2)ccc1-c1cn(C[C@H]2CCCCO2)nn1` [Compound I-423], at human GPR84 receptor (HEK293, single concentration 6.00 μM (designated D°)), the inhibition at 6 µM is over 75%. This compound also yielded an IC50 against human GPR84 receptor of 0.3 to 1 µM. In the test on neutrophils, the IC50 was at most 0.3 µM and the “Human Neutrophil migration inhibition - fold potency to Control Compound” value was “A (IC50 of >1.0-fold relative to Control Compound)”.

On to `Cc1cc(C#CCN2CC(C)(C)C2)ccc1-c1cn(CC2OCC(C)(C)CO2)nn1` [Compound I-634], for which, at human GPR84 receptor, the inhibition at 10 µM is over 75% and the IC50 is at most 0.3 µM. Also, in the test on neutrophils, the IC50 is at most 0.3 µM and the “Human Neutrophil migration inhibition - fold potency to Control Compound” value is on record as “A (IC50 of >1.0-fold relative to Control Compound)”.

On human GPR84 receptor, `Cc1cc(C#CCn2cc(-c3ccc([N+](=O)[O-])cc3)nn2)ccc1-c1cn(CC2CCCCO2)nn1` (centres unmarked) [Compound I-454] yielded an inhibition at 10 µM of over 75% and an IC50 of at most 0.3 µM. In addition, in the test on neutrophils, the IC50 is at most 0.3 µM and the “Human Neutrophil migration inhibition - fold potency to Control Compound” value is reported as “A (IC50 of >1.0-fold relative to Control Compound)”.

Take `Cc1cc(C#CCNc2ccccc2)ccc1-c1cn(C[C@@H]2CCCCO2)nn1` (stereo in doubt) [Compound I-144]: on human GPR84 receptor, the inhibition at 10 µM was at most 25% and the IC50 was 1 to 3 µM. In the test with neutrophils, the IC50 lay within 1 to 3 µM and the “Human Neutrophil migration inhibition - fold potency to Control Compound” value is “C (IC50≤0.5-fold relative to Control Compound)”.

As for `Cc1cc(C#CC2CC2)ccc1-c1cn(CC2CCC(C)(C)CO2)nn1` (centres unmarked) [Compound I-455], on human GPR84 receptor, the inhibition at 10 µM was over 75% and the IC50 lay within 1 to 3 µM. In the test on neutrophils, the IC50 is at most 0.3 µM and the “Human Neutrophil migration inhibition - fold potency to Control Compound” value is “B (IC50 of >0.5-≤1.0-fold relative to Control Compound)”.

On human GPR84 receptor, `Cc1ccc(C#CC2CC2)cc1Cc1nnn(CC2CCCCO2)n1` (centres unmarked) [Compound I-418] returned an inhibition at 2 µM of over 75% and an IC50 of 0.3 to 1 µM. For the same compound, in the test on neutrophils, the IC50 lay in the range of 1 to 3 µM and the “Human Neutrophil migration inhibition - fold potency to Control Compound” value is reported as “C (IC50≤0.5-fold relative to Control Compound)”.

At human GPR84 receptor, `Cc1cc(N2CCN(Cc3ccccn3)CC2)ccc1-c1cn(CC2OCC(C)(C)CO2)nn1` [Compound I-531] returned an inhibition at 10 µM of over 75% and an IC50 of at most 0.3 µM. Moreover, in the test with neutrophils, the IC50 is at most 0.3 µM and the “Human Neutrophil migration inhibition - fold potency to Control Compound” value is reported as “A (IC50 of >1.0-fold relative to Control Compound)”.

(Values after patent US12617777B2, “GPR84 antagonists and uses thereof” (Liminal BioSciences Limited, priority 2021, dated 2026).)
